Earlier results as cited in patent US12233110B2, “Compositions comprising pharmaceutically acceptable salts of glucagon-like peptide-1 analogs and uses thereof” (i20 Therapeutics, Inc., priority 2021, dated 2025).

Conditions: Reference Data

SMILES	pKa
O=C(O)O [bicarbonate]	approximately 6
C[N+](C)(C)CCO [choline]	approximately 14
